Measurements reported in patent EP0953357A1, “NEPHROTROPIC DRUGS” (Drug Delivery System Institute, Ltd., priority 1997, dated 1998).
Where two headings read alike, the source gives them in different places. Blank lines part the entries; values can stand above or below the molecule they belong to.

Tests used:
[1] = Renal selectivity (organ distribution) of thioglucoside-modified products (Test 6)
Protocol: (§1) The organ clearance was determined by the following equation.
Organ distribution was studied on Glc-S-C8 and, in addition, thioglucoside modification products of AVP, tryptamine, NBD as a fluorescent dye, doxorubicin as an anticancer agent and the like. Glc-S-C8 (the labeled product was prepared by catalytic exchange with ^3H gas; the specific activity 40.7 GBq/mmol), AVP derivatives, and tryptamine derivatives were converted to ^3H-labeled product and then studied on organ selectivity in the same manner as in Test 1. For the NBD derivatives, an experiment on distribution was carried out under conditions of dose 10 nmol/kg and 3 min. The vital sample was deproteinized with acetonitrile, subjected to separation by reversed phase liquid chromatography, and then quantitatively determined by fluorescence detection. DXR and derivatives thereof were administered at a dose of 50 nmol/kg, and, 3 min after the administration, the distribution was detected in the same manner as used for the NBD derivatives.

[2] = Distribution of sugar-modified AVP in organs (Test 1); format: in vivo, male SD rats; details: rats, i.v. 1 nmol/kg; for renal selectivity: 5 min after administration, concentration in organs and organ clearance as index (Figs. 1 and 2)
Protocol: as §1
The organ clearance under the above experimental conditions is considered as a measure of the speed at which the compound is incorporated into the organs. The kidney is an organ which functions to perform glomerular filtration for the production of urine. The renal clearance of low-molecular weight compounds, which are likely to undergo glomerular filtration, is generally larger than the clearance for other organs. Further, under the above experimental conditions, it was estimated from the results on ^14C-labeled inulin that the incorporation of about 0.6 ml/min/g was carried out by glomerular filtration. Larger values indicate the incorporation of drugs into the kidney through blood vessels in addition to the glomerular filtration.

[3] = Autoradiography of sugar-modified AVPs in the kidney (Test 2); format: in vivo; details: rats, 5 min after administration, compared with Gal-C8-O-AVP and AVP
Protocol: Sugar-modified AVPs were administered to rats. Five min after the administration, accumulation sites in the kidney were examined by autoradiography.

[4] = rat, in vivo
[5] = Pharmacokinetic test of rats (Glc-S-C5-Ala-DEX) (Test 10 (1)); format: in vivo; details: male, rat, iv, Group B, i.v. 100 nmol/kg, n = 3, average ± SD
Excerpt: For both the groups, the dose was 100 nmol/kg.
Plasma was fractionated from the collected blood according to the conventional method. Further, the kidney and the liver were extracted. The plasma was deprotenized, and the organs were homogenized and deprotenized, followed by separation by reversed phase liquid chromatography. Thereafter, Glc-S-C5-Ala-DEX and dexamethasone were detected and quantitatively determined by UV detector.

[6] = Renal selectivity of modified anti-inflammatory steroid, part 1: total radioactivity in organs (Test 7); details: rats, i.v. 10 nmol/kg, 5 min
[7] = rats, ^3H-labeled product, same manner as Test 1 (i.v. 1 nmol/kg, 5 min)

Compound: COc1cccc2c1C(=O)c1c(O)c3c(c(O)c1C2=O)C[C@@](O)(C(=O)CO)C[C@@H]3O[C@H]1C[C@H](N)[C@H](O)[C@H](C)O1 [DXR, doxorubicin]
- Renal clearance ([1]; rats, DXR and derivatives: dose 50 nmol/kg, 3 min after administration): 0.54 ± 0.10 mL/min/g

Compound: N=C(N)NCCC[C@H](NC(=O)[C@@H]1CCCN1C(=O)[C@@H]1CSSC[C@H](NC(=O)CCCCCCCCO[C@@H]2O[C@H](CO)[C@H](O)[C@H](O)[C@H]2O)C(=O)N[C@@H](Cc2ccc(O)cc2)C(=O)N[C@@H](Cc2ccccc2)C(=O)N[C@@H](CCC(N)=O)C(=O)N[C@@H](CC(N)=O)C(=O)N1)C(=O)NCC(N)=O [Gal-O-C8-AVP]
- renal selectivity [2]: the renal selectivity was the same as that for AVP

Compound: CC[C@H](C)[C@@H]1NC(=O)[C@H](Cc2ccc(O)cc2)NC(=O)[C@@H](NC(=O)CCCCCCCCO[C@@H]2O[C@H](CO)[C@@H](O)[C@H](O)[C@H]2O)CSSC[C@@H](C(=O)N2CCC[C@H]2C(=O)N[C@@H](CC(C)C)C(=O)NCC(N)=O)NC(=O)[C@H](CC(N)=O)NC(=O)[C@H](CCC(N)=O)NC1=O [Glc-O-C8-Oxy]
- Hepatic clearance [4]: 0.08 ± 0.00 mL/min/g
- Renal clearance [4]: 1.05 ± 0.05 mL/min/g

Compound: COc1cccc2c1C(=O)c1c(O)c3c(c(O)c1C2=O)C[C@@](O)(C(=O)COC(=O)CCCCCCCCS[C@@H]1O[C@H](CO)[C@@H](O)[C@H](O)[C@H]1O)C[C@@H]3O[C@H]1C[C@H](N)[C@H](O)[C@H](C)O1 [Glc-S-C8-COO-DXR, 14-[9-(1-thio-β-D-glucopyranosyl)nonanoyl]doxorubicin]
- formation of free DXR in plasma and kidney ([1]; rat, in vivo): could be confirmed

Compound: N=C(N)NCCC[C@H](NC(=O)[C@@H]1CCCN1C(=O)[C@@H]1CSSC[C@H](NC(=O)CCCCCCCCO[C@H]2O[C@H](CO)[C@@H](O)[C@H](O)[C@@H]2O)C(=O)N[C@@H](Cc2ccc(O)cc2)C(=O)N[C@@H](Cc2ccccc2)C(=O)N[C@@H](CCC(N)=O)C(=O)N[C@@H](CC(N)=O)C(=O)N1)C(=O)NCC(N)=O [Man(α)-O-C8-AVP]
- renal selectivity [2]: the renal selectivity was the same as that for AVP

Compound: NCCc1c[nH]c2ccccc12 [Tryptamine]
- Conc. in kidney [1, 7]: 3.5±0.3 % of dose/g
- Renal clearance [1, 7]: 0.63 ± 0.07 mL/min/g

Compound: C[C@@H]1C[C@H]2[C@@H]3CCC4=CC(=O)C=C[C@]4(C)[C@@]3(F)[C@@H](O)C[C@]2(C)[C@@]1(O)C(=O)CO [dexamethasone]
- concentration at 5 min ([5]; kidney, read-out: Concentration of dexamethasone: Kidney): 203 ± 39.3 nM
- concentration at 5 min ([5]; liver, read-out: Concentration of dexamethasone: Liver): 930 ± 119 nM
- concentration at 5 min ([5]; plasma, read-out: Concentration of dexamethasone: Plasma): 116 ± 13.6 nM
- Total conc. of dexamethasone in organ: Adrenal [6]: 24.65±0.95 pmol/g tissue
- Total conc. of dexamethasone in organ: Blood [6]: 7.61±0.49 pmol/g tissue
- Total conc. of dexamethasone in organ: Fat [6]: 2.74±1.12 pmol/g tissue
- Total conc. of dexamethasone in organ: Heart [6]: 14.86±1.05 pmol/g tissue
- Total conc. of dexamethasone in organ: Kidney [6]: 22.36±0.80 pmol/g tissue
- Total conc. of dexamethasone in organ: Liver [6]: 65.90±12.61 pmol/g tissue
- Total conc. of dexamethasone in organ: Lung [6]: 16.49±1.57 pmol/g tissue
- Total conc. of dexamethasone in organ: Spleen [6]: 11.04±0.25 pmol/g tissue

Results, then the molecule that gave them:

- Renal clearance ([2]; 5 min, Fig. 2): 2.43 mL/min/g
- renal selectivity [2]: high renal selectivity
- concentration in cortical part and in the outer layer of the outer band in the medulla [3]: clearly higher
- concentration in the medulla [3]: lower
Compound: N=C(N)NCCC[C@H](NC(=O)[C@@H]1CCCN1C(=O)[C@@H]1CSSC[C@H](NC(=O)CCCCCCCCO[C@@H]2O[C@H](CO)[C@@H](O)[C@H](O)[C@H]2O)C(=O)N[C@@H](Cc2ccc(O)cc2)C(=O)N[C@@H](Cc2ccccc2)C(=O)N[C@@H](CCC(N)=O)C(=O)N[C@@H](CC(N)=O)C(=O)N1)C(=O)NCC(N)=O [Glc-O-C8-AVP]

- renal selectivity [2]: high renal selectivity
Compound: N=C(N)NCCC[C@H](NC(=O)[C@@H]1CCCN1C(=O)[C@@H]1CSSC[C@H](NC(=O)CCCCCCCCO[C@@H]2O[C@H](CO)[C@@H](O)[C@H](O)[C@@H]2O)C(=O)N[C@@H](Cc2ccc(O)cc2)C(=O)N[C@@H](Cc2ccccc2)C(=O)N[C@@H](CCC(N)=O)C(=O)N[C@@H](CC(N)=O)C(=O)N1)C(=O)NCC(N)=O [Man-O-C8-AVP]

- Hepatic clearance [4]: 0.14 ± 0.02 mL/min/g
- Renal clearance [4]: 3.59 ± 0.17 mL/min/g
Compound: CC[C@H](C)[C@@H]1NC(=O)[C@H](Cc2ccc(O)cc2)NC(=O)[C@@H](NC(=O)CCCCCCCCO[C@@H]2O[C@H](CO)[C@@H](O)[C@H](O)[C@@H]2O)CSSC[C@@H](C(=O)N2CCC[C@H]2C(=O)N[C@@H](CC(C)C)C(=O)NCC(N)=O)NC(=O)[C@H](CC(N)=O)NC(=O)[C@H](CCC(N)=O)NC1=O [Man-O-C8-Oxy]
